Activity calls are given as the source filed them. The calls are words filed in the database; no cut-off is given here.
Columns and labels:
[1] = test system: SW480; assay: Induction of apoptosis in human SW480 cells after 48 hrs by annexin V-FITC/propidium iodide staining based flow cytometry; type: functional, cell-based
[2] = test system: SW480; assay: Induction of apoptosis in human SW480 cells assessed as accumulation at subG1 phase at 10 uM after 48 hrs in presence of pan caspase inhibitor zVAD by Annexin-V-FITC/propidium iodide staining based flow cytometry (reference value: 15.3%); type: functional
[3] = test system: HT-29; assay: Induction of apoptosis in human HT-29 cells assessed as apoptotic cells at 10 uM after 48 hrs in presence of autophagy inhibitor bafilomycin A1 by annexin V-FITC/propidium iodide staining based flow cytometry (reference value: 15.7 to 19.6%); type: functional
[4] = test system: SW480; assay: Induction of apoptosis in human SW480 cells assessed as accumulation at subG1 phase at 10 uM after 48 hrs in presence of autophagy inducer rapamycin by propidium iodide staining based flow cytometry (reference value: 5.7 to 15.3%); type: functional
[5] = test system: SW480; assay: Induction of apoptosis in human SW480 cells assessed as apoptotic cells at 10 uM after 48 hrs by annexin V-FITC/propidium iodide staining based flow cytometry (reference value: 9.6 to 15.3%); type: functional
[6] = Cell cycle arrest in human SW480 cells after 48 hrs by propidium iodide staining based flow cytometry; type: functional
[7] = test system: SW480; assay: Induction of apoptosis in human SW480 cells assessed as necrotic cells at 10 uM after 48 hrs by annexin V-FITC/propidium iodide staining based flow cytometry (reference value: 2.8%); type: functional
[8] = Cell cycle arrest in human SW480 cells assessed as accumulation at subG1 phase at 3 uM after 48 hrs by propidium iodide staining based flow cytometry (reference value: 5.7%); type: functional
[9] = test system: SW480; assay: […] of autophagy in human SW480 cells expressing mCherry-eGFPeLC3 assessed as accumulation of autophagosomes at 10 uM after 2 hrs by confocal microscopic analysis; type: functional, cell-based
[10] = test system: SW480; assay: Induction of apoptosis in human SW480 cells assessed as apoptotic cells at 10 uM after 48 hrs in presence of autophagy inducer rapamycin by annexin V-FITC/propidium iodide staining based flow cytometry (reference value: 9.6 to 15.3%); type: functional
[11] = Cell cycle arrest in human SW480 cells assessed as accumulation at subG1 phase at 10 uM after 48 hrs by propidium iodide staining based flow cytometry (reference value: 5.7 to 15.3%); type: functional
[12] = test system: SW480; assay: Induction of apoptosis in human SW480 cells assessed as necrotic cells at 1 uM after 48 hrs by annexin V-FITC/propidium iodide staining based flow cytometry (reference value: 2.8%); type: functional
[13] = Cell cycle arrest in human SW480 cells assessed as accumulation at subG1 phase at 1 uM after 48 hrs by propidium iodide staining based flow cytometry (reference value: 5.7%); type: functional
[14] = Cell cycle arrest in human SW480 cells assessed as accumulation at G1 phase at 1 uM after 48 hrs by propidium iodide staining based flow cytometry (reference value: 61.2%); type: functional
[15] = test system: SW480; assay: Induction of apoptosis in human SW480 cells assessed as apoptotic cells at 1 uM after 48 hrs by annexin V-FITC/propidium iodide staining based flow cytometry (reference value: 10.6%); type: functional
[16] = test system: HT-29; assay: Induction of apoptosis in human HT-29 cells assessed as apoptotic cells at 10 uM after 48 hrs in presence of autophagy inhibitor CQ by annexin V-FITC/propidium iodide staining based flow cytometry (reference value: 15.7 to 19.6%); type: functional
[17] = test system: SW480; assay: Induction of autophagy in human SW480 cells assessed as increase in LC3-2 level at 10 uM after 1 to 4 hrs by Western blot analysis; type: functional, cell-based
[18] = test system: SW480; assay: Induction of apoptosis in human SW480 cells assessed as necrotic cells at 3 uM after 48 hrs by annexin V-FITC/propidium iodide staining based flow cytometry (reference value: 2.8%); type: functional
[19] = test system: SW480; assay: Induction of apoptosis in human SW480 cells assessed as increase in LC3-2 level at 10 uM after 48 hrs in presence of autophagy inhibitor bafilomycin A1 by Western blot analysis; type: functional, cell-based
[20] = Cell cycle arrest in human SW480 cells assessed as accumulation at G1 phase at 3 uM after 48 hrs by propidium iodide staining based flow cytometry (reference value: 61.2%); type: functional
[21] = Cell cycle arrest in human SW480 cells assessed as accumulation at G1 phase at 10 uM after 48 hrs by propidium iodide staining based flow cytometry (reference value: 61.2%); type: functional
[22] = test system: SW480; assay: Induction of apoptosis in human SW480 cells assessed as apoptotic cells at 10 uM after 48 hrs in presence of autophagy inhibitor CQ by annexin V-FITC/propidium iodide staining based flow cytometry (reference value: 9.6 to 15.3%); type: functional
[23] = test system: SW480; assay: Induction of apoptosis in human SW480 cells assessed as apoptotic cells at 10 uM after 48 hrs in presence of autophagy inhibitor bafilomycin A1 by annexin V-FITC/propidium iodide staining based flow cytometry (reference value: 9.6 to 15.3%); type: functional
[24] = test system: SW480; assay: Induction of apoptosis in human SW480 cells assessed as apoptotic cells at 10 uM after 48 hrs in presence of autophagy inhibitor 3-MA by annexin V-FITC/propidium iodide staining based flow cytometry (reference value: 9.6 to 15.3%); type: functional
[25] = Antiproliferative activity against human SW480 cells after 72 hrs by MTT assay; type: functional, cell-based; conditions: SW480, 72 h
[26] = test system: SW480; assay: Induction of apoptosis in beclin-1 silenced human SW480 cells assessed as apoptotic cells at 10 uM after 48 hrs by annexin V-FITC/propidium iodide staining based flow cytometry (reference value: 14.4%); type: functional
[27] = test system: HT-29; assay: Induction of apoptosis in human HT-29 cells assessed as apoptotic cells at 10 uM after 48 hrs by annexin V-FITC/propidium iodide staining based flow cytometry (reference value: 15.7 to 19.6%); type: functional
[28] = test system: SW480; assay: Induction of apoptosis in human SW480 cells assessed as apoptotic cells at 3 uM after 48 hrs by annexin V-FITC/propidium iodide staining based flow cytometry (reference value: 10.6%); type: functional

Cn1cnc2c(F)c(Nc3ccc(Br)cc3Cl)c(C(=O)NOCCO)cc21 [SELUMETINIB]
Activity [1]: Dose-dependent effect
Activity [2]: 24.1%
Activity [3]: 68.3%
Activity [4]: 11.9%
Activity [5]: 29 - 42.9%
Activity [6]: Dose-dependent effect
Activity [7]: 5.3%
Activity [8]: 17.8%
inhibition [9]: Active
Activity [10]: 21.4%
Activity [11]: 23.7 to 42.9%
Activity [12]: 4.2%
Activity [13]: 10%
Activity [14]: 75%
Activity [15]: 17.4%
Activity [16]: 58.6%
Activity [17]: Active
Activity [18]: 4.9%
Activity [19]: Active
Activity [20]: 59.6%
Activity [21]: 58%
Activity [22]: 55.4%
Activity [23]: 64.9%
Activity [24]: 41.1%
IC50 [25]: 0.422 µM
Activity [26]: 53.3%
Activity [27]: 43.9 - 51.2%
Activity [28]: 23.1%

From ChEMBL document CHEMBL3867432, “Autophagy regulates Selumetinib (AZD6244) induced-apoptosis in colorectal cancer cells” (Eur J Med Chem, 2016)
